What was measured:
[1] = tested on: MRSA ATCC 43300; assay: Inhibition of MRSA biofilm formation, crystal violet reporter assay; assay type: cell-based, Staphylococcus aureus; details: SAR discussion
[2] = tested on: CCD-18 Co cells; assay: MTT cytotoxicity assay in normal human colon cells; assay type: cell-based; details: day 1, CCD-18 Co cells

**Q.** How did the “MRSA biofilm inhibition activity compared to the parent 5a (in words)” value [1] turn out when `Cc1ccc(-c2cc(-c3nc4ccccc4c(=O)[nH]3)nc(N)n2)cc1` [Compound 5b] was run?
**A.** The value was “reduced activity”.

**Q.** `COc1ccc(-c2cc(-c3nc4ccccc4c(=O)[nH]3)nc(N)n2)cc1OC` [Compound 5e] was tested. Which “MRSA biofilm inhibition activity compared to the parent 5a (in words)” value [1] did it give?
**A.** Its value is “reduced activity”.

**Q.** For `COc1cc(OC)c(-c2cc(-c3nc4ccccc4c(=O)[nH]3)nc(N)n2)c(OC)c1` [Compound 5h], which “cellular toxicity (MTT)” value ([2]; 50 μM, versus DMSO controls) is on record?
**A.** Its value is “minimal”.

**Q.** For `COc1cc(-c2cc(-c3nc4ccccc4c(=O)[nH]3)nc(N)n2)cc(OC)c1OC` [Compound 5i], which “MRSA biofilm inhibition activity compared to the parent 5a (in words)” value [1] is on record?
**A.** The value was “considerably reduced activity”.

**Q.** `CSc1ccc(-c2cc(-c3nc4ccccc4c(=O)[nH]3)nc(N)n2)cc1` [Compound 5j] was tested. Which “cellular toxicity (MTT)” value ([2]; 50 μM, versus DMSO controls) did it give?
**A.** The value was “more cytotoxic”.

**Q.** With `Nc1nc(-c2cccc(Br)c2)cc(-c2nc3ccccc3c(=O)[nH]2)n1` [Compound 5k] as the molecule, how does the “cellular toxicity (MTT)” value ([2]; 12.5 μM (lowest concentration used)) read?
**A.** The value was “significant toxicity”.

**Q.** `Nc1nc(-c2cccc(OCc3ccccc3)c2)cc(-c2nc3ccccc3c(=O)[nH]2)n1` [Compound 5r] was tested. Which “MRSA biofilm inhibition activity compared to the parent 5a (in words)” value [1] did it give?
**A.** The value was “reduced activity”.
